Laboratory results from ChEMBL document CHEMBL4304811, “Development of a Water-Soluble Indolylmaleimide Derivative IM-93 Showing Dual Inhibition of Ferroptosis and NETosis” (ACS Med Chem Lett, 2019).

How the values were obtained:
[1] = biological target: Protein-tyrosine kinase 2-beta (Homo sapiens) (UniProt Q14289); assay: Binding affinity to wild-type human full length PYK2 (M1 to E967 residues) expressed in bacterial expression system assessed as residual binding level at 10 uM by Kinomescan method relative to control
[2] = biological target: Serine/threonine-protein kinase RIO3 (Homo sapiens) (UniProt O14730); assay: Binding affinity to wild-type human full length RIOK3 (M1 to E519 residues) expressed in bacterial expression system assessed as residual binding level at 10 uM by Kinomescan method relative to control
[3] = biological target: Serine/threonine-protein kinase 33 (Homo sapiens) (UniProt Q9BYT3); assay: Binding affinity to wild-type human full length STK33 (M1 to L514 residues) expressed in bacterial expression system assessed as residual binding level at 10 uM by Kinomescan method relative to control
Chain of Serine/threonine-protein kinase 33 (Homo sapiens) (Q9BYT3 whole entry, looked up, the tested form may be a part): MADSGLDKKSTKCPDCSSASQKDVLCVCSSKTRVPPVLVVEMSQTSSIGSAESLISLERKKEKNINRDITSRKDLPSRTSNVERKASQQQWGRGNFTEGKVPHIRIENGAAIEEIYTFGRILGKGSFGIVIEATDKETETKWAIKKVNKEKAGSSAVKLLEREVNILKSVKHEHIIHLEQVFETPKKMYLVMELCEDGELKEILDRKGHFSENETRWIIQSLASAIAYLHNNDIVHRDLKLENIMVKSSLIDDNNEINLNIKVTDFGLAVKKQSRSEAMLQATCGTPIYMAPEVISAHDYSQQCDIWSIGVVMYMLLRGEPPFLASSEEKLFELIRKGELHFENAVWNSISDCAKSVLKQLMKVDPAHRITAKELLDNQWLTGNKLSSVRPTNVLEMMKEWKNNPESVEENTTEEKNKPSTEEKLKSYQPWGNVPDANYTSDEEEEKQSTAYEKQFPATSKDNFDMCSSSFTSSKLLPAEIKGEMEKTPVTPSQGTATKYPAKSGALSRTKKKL

[4] = biological target: Cyclin-dependent kinase 8 (Homo sapiens) (UniProt P49336); assay: Binding affinity to wild-type human partial length CDK8 (M1 to T360 residues) expressed in bacterial expression system assessed as residual binding level at 10 uM by Kinomescan method relative to control
[5] = biological target: Calcium/calmodulin-dependent protein kinase kinase 2 (Homo sapiens) (UniProt Q96RR4); assay: Binding affinity to wild-type human partial length CAMKK2 (D65 to V471 residues) expressed in bacterial expression system assessed as residual binding level at 10 uM by Kinomescan method relative to control
Chain of Calcium/calmodulin-dependent protein kinase kinase 2 (Homo sapiens) (Q96RR4 2-588 limits assumed): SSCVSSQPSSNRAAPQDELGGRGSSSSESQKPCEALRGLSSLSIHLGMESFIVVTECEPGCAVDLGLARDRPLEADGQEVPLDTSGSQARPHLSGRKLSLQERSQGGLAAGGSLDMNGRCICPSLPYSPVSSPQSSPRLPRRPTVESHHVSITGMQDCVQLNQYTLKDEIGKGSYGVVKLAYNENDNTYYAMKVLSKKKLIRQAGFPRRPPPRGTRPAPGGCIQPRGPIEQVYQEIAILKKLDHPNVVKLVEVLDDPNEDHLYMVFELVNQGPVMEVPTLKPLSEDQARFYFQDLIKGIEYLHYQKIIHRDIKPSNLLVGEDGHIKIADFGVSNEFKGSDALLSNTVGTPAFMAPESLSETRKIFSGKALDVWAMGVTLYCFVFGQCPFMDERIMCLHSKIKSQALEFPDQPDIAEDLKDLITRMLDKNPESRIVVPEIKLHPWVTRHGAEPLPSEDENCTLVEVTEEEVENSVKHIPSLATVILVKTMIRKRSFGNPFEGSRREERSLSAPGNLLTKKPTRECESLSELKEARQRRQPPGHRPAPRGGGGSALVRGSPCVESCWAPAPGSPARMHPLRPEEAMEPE

[6] = test system: Epidermal growth factor receptor (Homo sapiens), P00533 [T790M]; assay: Binding affinity to human partial length EGFR T790M mutant (R669 to G1022 residues) expressed in mammalian expression system assessed as residual binding level at 10 uM by Kinomescan method relative to control
[7] = test system: Phosphatidylinositol 4,5-bisphosphate 3-kinase catalytic subunit alpha isoform (Homo sapiens), P42336 [I800L]; assay: Binding affinity to human partial length PIK3CA I800L mutant (R108 to N1068 residues) expressed in mammalian expression system assessed as residual binding level at 10 uM by Kinomescan method relative to control
[8] = biological target: Leukocyte tyrosine kinase receptor (Homo sapiens) (UniProt P29376); assay: Binding affinity to wild-type human partial length LTK (P422 to S744 residues) expressed in bacterial expression system assessed as residual binding level at 10 uM by Kinomescan method relative to control
Chain of Leukocyte tyrosine kinase receptor (Homo sapiens) (P29376 whole entry, the tested form may be a part): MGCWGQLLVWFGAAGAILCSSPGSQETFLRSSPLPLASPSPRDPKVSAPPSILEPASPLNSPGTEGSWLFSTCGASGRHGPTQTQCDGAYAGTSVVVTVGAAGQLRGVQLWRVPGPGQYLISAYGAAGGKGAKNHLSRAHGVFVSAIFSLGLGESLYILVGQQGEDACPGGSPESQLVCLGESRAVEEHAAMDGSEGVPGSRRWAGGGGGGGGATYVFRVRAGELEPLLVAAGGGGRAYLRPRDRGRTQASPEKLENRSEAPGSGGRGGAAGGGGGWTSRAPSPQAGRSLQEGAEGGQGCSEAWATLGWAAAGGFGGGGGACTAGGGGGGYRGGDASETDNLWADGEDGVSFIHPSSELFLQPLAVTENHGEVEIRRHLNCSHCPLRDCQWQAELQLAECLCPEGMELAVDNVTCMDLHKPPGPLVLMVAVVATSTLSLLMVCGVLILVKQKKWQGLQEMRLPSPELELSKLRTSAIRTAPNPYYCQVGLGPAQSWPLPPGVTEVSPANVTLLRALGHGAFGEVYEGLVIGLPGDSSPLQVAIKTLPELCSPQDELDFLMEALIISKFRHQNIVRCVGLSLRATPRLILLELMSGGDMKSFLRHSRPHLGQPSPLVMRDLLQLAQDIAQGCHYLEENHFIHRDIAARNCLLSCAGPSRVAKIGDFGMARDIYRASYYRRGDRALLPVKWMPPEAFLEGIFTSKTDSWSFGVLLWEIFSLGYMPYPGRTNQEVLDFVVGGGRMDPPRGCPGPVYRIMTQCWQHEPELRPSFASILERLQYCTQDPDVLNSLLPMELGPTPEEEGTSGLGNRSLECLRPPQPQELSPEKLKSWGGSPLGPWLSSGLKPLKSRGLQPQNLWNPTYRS

[9] = biological target: cAMP-dependent protein kinase catalytic subunit alpha (Homo sapiens) (UniProt P17612); assay: Binding affinity to wild-type human partial length PKAC-alpha (G10 to F351 residues) expressed in bacterial expression system assessed as residual binding level at 10 uM by Kinomescan method relative to control
[10] = biological target: Serine/threonine-protein kinase N2 (Homo sapiens) (UniProt Q16513); assay: Binding affinity to wild-type human partial length PKN2 (E634 to C984 residues) expressed in bacterial expression system assessed as residual binding level at 10 uM by Kinomescan method relative to control
[11] = biological target: Ephrin type-B receptor 2 (Homo sapiens) (UniProt P29323); assay: Binding affinity to wild-type human partial length EPHB2 (I597 to L902 residues) expressed in bacterial expression system assessed as residual binding level at 10 uM by Kinomescan method relative to control
Chain of Ephrin type-B receptor 2 (Homo sapiens) (P29323 whole entry, the tested form may be a part): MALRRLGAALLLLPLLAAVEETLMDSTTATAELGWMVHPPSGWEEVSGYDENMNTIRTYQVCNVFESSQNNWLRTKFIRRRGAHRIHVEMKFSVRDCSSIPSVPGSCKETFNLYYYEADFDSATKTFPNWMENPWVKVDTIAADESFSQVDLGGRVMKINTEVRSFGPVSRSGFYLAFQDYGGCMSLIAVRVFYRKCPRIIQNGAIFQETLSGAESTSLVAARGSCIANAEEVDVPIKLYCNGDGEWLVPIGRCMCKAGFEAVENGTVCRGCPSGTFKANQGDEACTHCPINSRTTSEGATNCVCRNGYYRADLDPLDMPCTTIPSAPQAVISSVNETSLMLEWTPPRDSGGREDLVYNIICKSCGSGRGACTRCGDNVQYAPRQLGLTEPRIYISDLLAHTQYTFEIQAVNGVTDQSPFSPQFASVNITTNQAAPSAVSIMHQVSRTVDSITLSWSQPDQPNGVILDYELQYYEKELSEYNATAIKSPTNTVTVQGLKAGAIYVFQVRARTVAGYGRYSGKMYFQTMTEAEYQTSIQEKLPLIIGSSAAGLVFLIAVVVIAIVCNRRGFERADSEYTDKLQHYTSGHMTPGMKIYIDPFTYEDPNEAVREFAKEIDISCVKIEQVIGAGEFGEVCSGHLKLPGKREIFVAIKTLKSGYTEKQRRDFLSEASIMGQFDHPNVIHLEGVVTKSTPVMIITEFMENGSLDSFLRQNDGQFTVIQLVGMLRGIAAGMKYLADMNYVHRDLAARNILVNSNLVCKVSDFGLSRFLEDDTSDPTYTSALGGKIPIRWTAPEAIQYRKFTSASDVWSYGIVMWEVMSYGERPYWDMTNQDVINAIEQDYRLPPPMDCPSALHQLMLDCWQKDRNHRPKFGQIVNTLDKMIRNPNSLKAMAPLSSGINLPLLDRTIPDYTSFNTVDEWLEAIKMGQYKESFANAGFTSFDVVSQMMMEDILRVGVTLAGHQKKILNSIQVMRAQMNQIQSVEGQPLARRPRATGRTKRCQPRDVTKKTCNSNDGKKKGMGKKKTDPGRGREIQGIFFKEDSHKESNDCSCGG

[12] = biological target: Ribosomal protein S6 kinase alpha-1 (Homo sapiens) (UniProt Q15418); assay: Binding affinity to wild-type human partial length C- terminal RSK1 kinase domain 2 (P360 to L681 residues) expressed in bacterial expression system assessed as residual binding level at 10 uM by Kinomescan method relative to control
[13] = biological target: Inhibitor of nuclear factor kappa-B kinase subunit alpha (Homo sapiens) (UniProt O15111); assay: Binding affinity to wild-type human full length IKK-alpha (M1 to E745 residues) expressed in mammalian expression system assessed as residual binding level at 10 uM by Kinomescan method relative to control
[14] = biological target: Serine/threonine-protein kinase WNK1 (Homo sapiens) (UniProt Q9H4A3); assay: Binding affinity to wild-type human partial length WNK1 (Q194 to A490 residues) expressed in mammalian expression system assessed as residual binding level at 10 uM by Kinomescan method relative to control
[15] = biological target: Mitogen-activated protein kinase 6 (Homo sapiens) (UniProt Q16659); assay: Binding affinity to wild-type human partial length ERK3 (M1 to P413 residues) expressed in bacterial expression system assessed as residual binding level at 10 uM by Kinomescan method relative to control
[16] = biological target: Dual specificity protein kinase CLK1 (Homo sapiens) (UniProt P49759); assay: Binding affinity to wild-type human full length CLK1 (M1 to I484 residues) expressed in bacterial expression system assessed as residual binding level at 10 uM by Kinomescan method relative to control
Chain of Dual specificity protein kinase CLK1 (Homo sapiens) (P49759 whole entry, looked up, the tested form may be a part): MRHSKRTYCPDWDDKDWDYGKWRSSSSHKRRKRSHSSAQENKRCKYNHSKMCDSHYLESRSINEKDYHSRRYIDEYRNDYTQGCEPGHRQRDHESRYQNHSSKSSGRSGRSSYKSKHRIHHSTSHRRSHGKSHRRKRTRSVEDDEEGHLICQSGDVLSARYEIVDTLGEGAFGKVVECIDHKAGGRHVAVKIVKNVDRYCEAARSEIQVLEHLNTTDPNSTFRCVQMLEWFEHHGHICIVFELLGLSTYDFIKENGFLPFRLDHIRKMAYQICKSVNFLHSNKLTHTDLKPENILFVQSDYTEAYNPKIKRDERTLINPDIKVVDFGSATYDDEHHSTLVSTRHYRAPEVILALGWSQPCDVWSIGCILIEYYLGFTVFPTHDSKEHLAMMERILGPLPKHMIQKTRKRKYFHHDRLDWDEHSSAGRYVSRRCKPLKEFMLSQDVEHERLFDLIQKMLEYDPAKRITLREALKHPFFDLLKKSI

[17] = biological target: Proto-oncogene tyrosine-protein kinase receptor Ret (Homo sapiens) (UniProt P07949); assay: Binding affinity to wild-type human partial length RET (E713 to D1014 residues) expressed in bacterial expression system assessed as residual binding level at 10 uM by Kinomescan method relative to control
[18] = biological target: Epidermal growth factor receptor (Homo sapiens) (UniProt P00533); assay: Binding affinity to wild-type human partial length EGFR (R669 to V1011 residues) expressed in bacterial expression system assessed as residual binding level at 10 uM by Kinomescan method relative to control
[19] = biological target: Proto-oncogene tyrosine-protein kinase Src (Homo sapiens) (UniProt P12931); assay: Binding affinity to wild-type human partial length SRC (L240 to L536 residues) expressed in bacterial expression system assessed as residual binding level at 10 uM by Kinomescan method relative to control
[20] = biological target: Activin receptor type-2A (Homo sapiens) (UniProt P27037); assay: Binding affinity to wild-type human ACVR2A (V171 to T499 residues) expressed in bacterial expression system assessed as residual binding level at 10 uM by Kinomescan method relative to control
Chain of Activin receptor type-2A (Homo sapiens) (P27037 whole entry, the tested form may be a part): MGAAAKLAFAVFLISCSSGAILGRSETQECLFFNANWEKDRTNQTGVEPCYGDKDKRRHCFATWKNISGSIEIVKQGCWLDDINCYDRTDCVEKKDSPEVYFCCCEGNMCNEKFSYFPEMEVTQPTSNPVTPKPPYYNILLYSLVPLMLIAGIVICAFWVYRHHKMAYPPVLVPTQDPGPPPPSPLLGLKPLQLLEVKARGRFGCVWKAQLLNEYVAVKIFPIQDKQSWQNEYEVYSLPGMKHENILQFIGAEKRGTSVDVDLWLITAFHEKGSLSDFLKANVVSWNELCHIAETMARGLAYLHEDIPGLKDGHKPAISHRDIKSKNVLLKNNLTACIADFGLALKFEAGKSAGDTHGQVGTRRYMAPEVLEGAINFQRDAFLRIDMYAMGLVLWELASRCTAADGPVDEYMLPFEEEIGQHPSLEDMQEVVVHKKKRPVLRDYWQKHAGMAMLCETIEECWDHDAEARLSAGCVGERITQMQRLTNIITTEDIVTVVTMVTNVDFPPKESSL

[21] = biological target: Cyclin-dependent kinase 14 (Homo sapiens) (UniProt O94921); assay: Binding affinity to wild-type human full length PFTK1 (M1 to H451 residues) expressed in bacterial expression system assessed as residual binding level at 10 uM by Kinomescan method relative to control
[22] = biological target: Tyrosine-protein kinase JAK3 (Homo sapiens) (UniProt P52333); assay: Binding affinity to wild-type human partial length JAK3 JH1 catalytic domain (I781 to S1124 residues) expressed in mammalian expression system assessed as residual binding level at 10 uM by Kinomescan method relative to control
[23] = biological target: Ribosomal protein S6 kinase alpha-6 (Homo sapiens) (UniProt Q9UK32); assay: Binding affinity to wild-type human partial length N- terminal RSK4 kinase domain 1 (M1 to E397 residues) expressed in mammalian expression system assessed as residual binding level at 10 uM by Kinomescan method relative to control
Chain of Ribosomal protein S6 kinase alpha-6 (Homo sapiens) (Q9UK32 whole entry, the tested form may be a part): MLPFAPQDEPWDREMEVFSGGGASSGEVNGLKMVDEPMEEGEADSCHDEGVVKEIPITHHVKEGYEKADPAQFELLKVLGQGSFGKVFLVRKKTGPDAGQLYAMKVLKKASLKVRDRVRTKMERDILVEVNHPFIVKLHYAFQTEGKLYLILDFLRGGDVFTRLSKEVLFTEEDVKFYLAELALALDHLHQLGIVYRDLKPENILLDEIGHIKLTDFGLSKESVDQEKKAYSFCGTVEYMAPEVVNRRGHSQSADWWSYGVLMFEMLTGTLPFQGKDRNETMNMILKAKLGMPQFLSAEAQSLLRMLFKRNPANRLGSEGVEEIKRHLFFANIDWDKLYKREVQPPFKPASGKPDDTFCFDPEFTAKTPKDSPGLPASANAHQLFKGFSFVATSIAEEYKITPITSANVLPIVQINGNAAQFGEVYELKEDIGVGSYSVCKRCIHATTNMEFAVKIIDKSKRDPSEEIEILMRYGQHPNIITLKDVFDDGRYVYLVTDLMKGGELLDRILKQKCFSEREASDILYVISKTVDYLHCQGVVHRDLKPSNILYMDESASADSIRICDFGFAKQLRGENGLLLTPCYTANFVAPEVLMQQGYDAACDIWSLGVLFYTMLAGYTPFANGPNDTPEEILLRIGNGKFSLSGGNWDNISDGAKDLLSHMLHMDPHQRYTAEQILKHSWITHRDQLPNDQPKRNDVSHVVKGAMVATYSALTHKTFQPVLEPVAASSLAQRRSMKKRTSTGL

[24] = biological target: Cyclin-dependent kinase 4/cyclin D1 (Homo sapiens) (UniProt P11802+P24385); assay: Binding affinity to wild-type human full length CDK4/cyclinD1 (M1 to E303 residues) expressed in mammalian expression system assessed as residual binding level at 10 uM by Kinomescan method relative to control

`CC(C)N1C(=O)C(NCCCN(C)C)=C(c2cn(C)c3ccccc23)C1=O.Cl` showed an Activity [1] of 100%, an Activity [2] of 100% and an Activity [3] of 100%. It also gave an Activity [4] of 100%, an Activity [5] of 69% and an Activity [6] of 91%. For the same compound, the Activity [7] was 92%, the Activity [8] was 100% and the Activity [9] was 84%. It also gave an Activity [10] of 95%, an Activity [11] of 97% and an Activity [12] of 100%. The Activity [13] was 81%, the Activity [14] was 68% and the Activity [15] was 100%. The Activity [16] was 98%, the Activity [17] was 98% and the Activity [18] was 89%. It also gave an Activity [19] of 93%, an Activity [20] of 100% and an Activity [21] of 100%. For the same compound, the Activity [22] was 81%, the Activity [23] was 94% and the Activity [24] was 88%.
